In test [1] the target is T1, 3',5'-cyclic-AMP phosphodiesterase 4B (Homo sapiens, UniProt Q07343). The test is described as follows: Inhibition of recombinant His-tagged PDE4B1 (unknown origin) expressed in insect Sf9 cells using cAMP as substrate at 30 uM preincubated for 15 mins followed by substrate addition measured after 1 hr by luminescence assay relative to control.
For test [2], the system named is HCT-15. Put plainly: Cytotoxicity against human HCT15 cells assessed as cell death after 48 hrs by MTT assay. The class given is functional, cell-based. The following applies: HCT-15, 48 h. (Tetrazolium assays rely on reduction of a dye to a coloured formazan, in cell work by metabolically active cells.)
The subject of test [3] is HCT-15. The test is described as follows: Cytotoxicity against human HCT15 cells assessed as cell death at 25 ug/mL after 48 hrs by MTT assay relative to control. The test is classed as functional. To be noted: HCT-15, 48 h.
Test [4] has as its system HCT-15. Put plainly: Cytotoxicity against human HCT15 cells assessed as cell death at 20 ug/mL after 48 hrs by MTT assay relative to control. To be noted: HCT-15, 48 h. The test is classed as functional.
The test system of test [5] is HCT-15. The test is described as follows: Cytotoxicity against human HCT15 cells assessed as cell death at 15 ug/mL after 48 hrs by MTT assay relative to control. The class given is functional. The following applies: HCT-15, 48 h.
The test system of test [6] is HCT-15. The test is described as follows: Cytotoxicity against human HCT15 cells assessed as cell death at 10 ug/mL after 48 hrs by MTT assay relative to control. To be noted: HCT-15, 48 h. The test is classed as functional.
The test system of test [7] is HCT-15. The test is described as follows: Cytotoxicity against human HCT15 cells assessed as cell death at 5 ug/mL after 48 hrs by MTT assay relative to control. The class given is functional. To be noted: HCT-15, 48 h.
Test [8] has as its target T1, 3',5'-cyclic-AMP phosphodiesterase 4B. The test is described as follows: Inhibition of recombinant His-tagged PDE4B1 (unknown origin) expressed in insect Sf9 cells using cAMP as substrate preincubated for 15 mins followed by substrate addition measured after 1 hr by luminescence assay.

Activity calls are given as the source filed them. No cut-off for these calls is given here.

T1 sequence (Q07343 whole entry): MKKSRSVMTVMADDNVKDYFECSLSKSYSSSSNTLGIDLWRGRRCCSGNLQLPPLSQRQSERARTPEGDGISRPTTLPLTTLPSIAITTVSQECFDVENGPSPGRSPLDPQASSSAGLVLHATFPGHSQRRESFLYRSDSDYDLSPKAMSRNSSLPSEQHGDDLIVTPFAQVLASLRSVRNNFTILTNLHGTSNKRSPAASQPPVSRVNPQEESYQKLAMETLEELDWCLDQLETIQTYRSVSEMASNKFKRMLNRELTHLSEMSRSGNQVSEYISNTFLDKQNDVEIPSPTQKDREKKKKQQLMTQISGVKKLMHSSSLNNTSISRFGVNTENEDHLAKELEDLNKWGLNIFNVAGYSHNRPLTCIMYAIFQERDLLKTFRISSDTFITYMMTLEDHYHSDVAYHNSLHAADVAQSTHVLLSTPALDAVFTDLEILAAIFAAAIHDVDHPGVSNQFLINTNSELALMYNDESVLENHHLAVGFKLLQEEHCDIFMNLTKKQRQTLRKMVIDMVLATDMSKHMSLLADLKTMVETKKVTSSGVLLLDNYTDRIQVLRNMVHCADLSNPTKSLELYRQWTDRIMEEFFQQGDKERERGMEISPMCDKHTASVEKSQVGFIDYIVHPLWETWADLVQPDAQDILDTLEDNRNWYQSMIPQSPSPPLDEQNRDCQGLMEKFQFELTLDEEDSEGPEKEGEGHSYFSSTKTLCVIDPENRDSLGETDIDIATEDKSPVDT

`COc1ccc(C2CNC(=O)C2)cc1OC1CCCC1` (stereo unspecified): the inhibition (usually the drop in the measured response relative to a control, in per cent) in test [1] was 94.1%.

For the compound `CS(=O)(=O)Nc1ccc(NC(=O)Cn2cc(COc3ccc(Cl)cc3)nn2)cc1Oc1ccccc1`, in test [1], the inhibition stood at 51.3%.

As to `COc1cccc2c1C(=O)c1c(O)c3c(c(O)c1C2=O)C[C@@](O)(C(=O)CO)C[C@@H]3O[C@H]1C[C@H](N)[C@H](O)[C@H](C)O1` [DOXORUBICIN], the IC50 – broadly, the concentration needed to halve the response being measured – in test [2] came out at 90 nM.

Take `Cc1cc(OCc2cn(CC(=O)Nc3ccc(NS(C)(=O)=O)c(Oc4ccccc4)c3)nn2)ccc1Cl`: the inhibition in test [1] amounted to 32.9%.

Take `Cc1ccc(-c2cn(CC(=O)Nc3ccc(NS(C)(=O)=O)c(Oc4ccccc4)c3)nn2)cc1`: the IC50 in test [2] came out at 21 µg/mL. Further, the mortality (usually the share of the test organisms that died) at 25 µg/mL in test [3] came out at 53%. Moreover, in test [4], the mortality at 20 µg/mL was 49.6%. The mortality at 15 µg/mL in test [5] was 45.6%. Moreover, the mortality at 10 µg/mL in test [6] was determined as 40.2%. In addition, in test [7], the mortality at 5 µg/mL turned out to be 37%. In test [1], the inhibition stood at 36%.

Regarding `CS(=O)(=O)Nc1ccc(NC(=O)Cn2cc(COc3ccc([N+](=O)[O-])cc3)nn2)cc1Oc1ccccc1`, in test [1], the inhibition was 47.1%.

As to `CS(=O)(=O)Nc1ccc([N+](=O)[O-])cc1Oc1ccccc1`, the inhibition entry in test [1] was “inactive”.

Regarding `CS(=O)(=O)Nc1ccc(NC(=O)Cn2cc(-c3ccccc3)nn2)cc1Oc1ccccc1`, the IC50 in test [2] stood at 22.4 µg/mL; in test [8] it was 4920 nM. Besides, in test [3], the mortality at 25 µg/mL is 60.1%. Moreover, in test [4], the mortality at 20 µg/mL was found to be 42.7%. Moreover, the mortality at 15 µg/mL in test [5] stood at 31%. Moreover, the mortality at 10 µg/mL in test [6] is 15.2%. For the same compound, the mortality at 5 µg/mL in test [7] came out at 10.8%. Moreover, the values for the inhibition result in test [8] and in test [1] were “Dose-dependent effect” and 64.1%, respectively.

In the case of `Cc1ccc(OCc2cn(CC(=O)Nc3ccc(NS(C)(=O)=O)c(Oc4ccccc4)c3)nn2)cc1`, in test [1], the inhibition is 56.7%.

In the case of `CS(=O)(=O)Nc1ccc(NC(=O)Cn2cc(COc3ccccc3)nn2)cc1Oc1ccccc1`, the inhibition in test [1] is 51.2%.

As to `CS(=O)(=O)Nc1ccc(NC(=O)Cn2cc(COc3ccc4ccccc4c3)nn2)cc1Oc1ccccc1`, in test [3], the mortality at 25 µg/mL turned out to be 33.6%. The mortality at 20 µg/mL in test [4] stood at 25.3%. Further, the mortality at 15 µg/mL in test [5] worked out at 21.1%. For the same compound, the mortality at 10 µg/mL in test [6] came out at 14.3%. The mortality at 5 µg/mL in test [7] was 10.6%. Further, in test [1], the inhibition is 59.7%.

For `CS(=O)(=O)Nc1ccc(NC(=O)Cn2cc(COc3ccccc3Cl)nn2)cc1Oc1ccccc1`, in test [1], the inhibition is 42.5%.
